Assay results taken from US20260041693A1, “COMBINATION THERAPY OF CDK7 INHIBITORS WITH OTHER ANTI-CANCER THERAPIES” (QURIENT CO., LTD., priority 2022, published 2026).

Experiments:
MCF7 tumor = test: MCF7 human breast adenocarcinoma xenograft model; type: in vivo, BALB/c nude mice; conditions: compound 47 3 mg/kg i.p. every day; fulvestrant 2.5 mg/dose s.c. every day; alone or both
Protocol: MCF7 cells (1×10^7) mixed with matrigel (50:50) were subcutaneously implanted in the right flank of female BALB/c nude mice. Tumor-bearing mice were randomized and treated with compound 47 (3 mg/kg, intraperitoneally every day), fulvestrant (2.5 mg/dose, subcutaneously every day), or both compound 47 and fulvestrant when the average tumor volume reached 117 mm^3 (N=8 per group). Tumor volume and body weight were measured twice per week. […] On day 28, tumor volume of the compound 47 with fulvestrant combination group was reduced compared to the compound 47 alone group or the fulvestrant treatment group.

OVCAR3 tumor = test: OVCAR3 high-grade serous ovarian cancer cell line-derived xenograft model; type: in vivo, BALB/c nude mice; conditions: compound 47 3 mg/kg i.p. every day; olaparib 100 mg/kg orally every day; alone or both
Protocol: OVCAR3 cells (1×10^7) mixed with matrigel (50:50) were subcutaneously implanted in the right flank of female BALB/c nude mice. Tumor-bearing mice were randomized and treated with compound 47 (3 mg/kg, intraperitoneally every day), olaparib (100 mg/kg, orally every day), or both compound 47 and olaparib when the average tumor volume reached 173 mm^3 (N=8 per group). Tumor volume and body weight were measured twice per week.

DU145 tumor = test: DU145 castration-resistant prostate cancer cell line-derived xenograft model; type: in vivo, BALB/c nude mice; conditions: compound 47 3 mg/kg i.p. every day; docetaxel 15 mg/kg i.p. once a week; alone or both
Protocol: DU145 cells (1×10^7) mixed with matrigel (50:50) were subcutaneously implanted in the right flank of male BALB/c nude mice. Tumor-bearing mice were randomized and then treated with compound 47 (3 mg/kg, intraperitoneally every day), docetaxel (15 mg/kg, intraperitoneally once a week), or both compound 47 and docetaxel when the average tumor volume reached 154 mm^3 (N=8 per group). Tumor volume and body weight were measured twice per week.

RENCA cells = test: Cell viability assay (CellTiter-Glo); type: cell-based; conditions: Mus musculus, 72 hours, read-out: IC50 of RENCA cell growth/viability
Protocol: RENCA renal adenocarcinoma were treated with various concentrations of compound 47 for 72 hours. Cell viability was measured using the CellTiter-Glo assay system (Promega). Luminescence units were normalized to those of untreated cells and are presented as the percentage of cell viability. IC50 was calculated using the dose-response curve generated by GraphPad Prism.

CDK7 = molecular target: T1, CDK7 (Mus musculus, UniProt Q03147); test: Target occupancy assay (Bio-compound 3 pull-down, anti-CDK7 blot); type: cell-based; conditions: RENCA cells treated 4 hours; lysate incubated with 1 μM Bio-compound 3
T1 construct: endogenous in cells; host or cells: RENCA cells
T1 sequence (Q03147 2-346 limits assumed): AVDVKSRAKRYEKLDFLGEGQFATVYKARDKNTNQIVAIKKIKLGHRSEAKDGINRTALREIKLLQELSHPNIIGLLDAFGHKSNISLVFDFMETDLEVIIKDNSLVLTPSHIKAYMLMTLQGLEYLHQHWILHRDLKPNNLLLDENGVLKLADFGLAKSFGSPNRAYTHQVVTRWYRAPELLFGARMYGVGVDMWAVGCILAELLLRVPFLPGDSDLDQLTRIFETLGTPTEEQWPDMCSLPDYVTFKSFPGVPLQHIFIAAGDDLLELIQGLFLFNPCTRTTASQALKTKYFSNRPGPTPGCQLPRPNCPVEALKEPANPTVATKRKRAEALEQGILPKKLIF
T1 sequence (Q61458 1-323 partner): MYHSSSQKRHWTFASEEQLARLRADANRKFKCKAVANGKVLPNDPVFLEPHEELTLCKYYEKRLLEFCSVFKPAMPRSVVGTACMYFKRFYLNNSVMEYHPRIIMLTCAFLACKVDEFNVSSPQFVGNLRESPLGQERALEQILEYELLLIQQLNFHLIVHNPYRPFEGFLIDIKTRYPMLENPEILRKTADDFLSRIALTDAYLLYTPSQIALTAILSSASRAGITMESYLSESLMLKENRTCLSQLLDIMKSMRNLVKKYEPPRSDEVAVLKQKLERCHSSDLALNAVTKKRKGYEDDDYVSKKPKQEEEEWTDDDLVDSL
T1 sequence (P51949 1-309 partner): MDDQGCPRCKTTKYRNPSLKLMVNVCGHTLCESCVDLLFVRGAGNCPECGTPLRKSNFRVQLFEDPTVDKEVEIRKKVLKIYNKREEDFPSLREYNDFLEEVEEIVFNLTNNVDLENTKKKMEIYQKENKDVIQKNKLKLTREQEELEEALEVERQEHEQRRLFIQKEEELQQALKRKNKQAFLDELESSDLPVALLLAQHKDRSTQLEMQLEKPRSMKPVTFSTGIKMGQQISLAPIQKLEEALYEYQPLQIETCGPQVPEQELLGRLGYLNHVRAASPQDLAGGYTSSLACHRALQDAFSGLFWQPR
Protocol: RENCA cells were treated with various concentrations of compound 47 for 4 hours. Cells were washed with ice-cold PBS twice and then lysed with ice-cold lysis buffer (0.025M Tris, 0.15M NaCl, 0.001M EDTA, 1% NP-40, 5% glycerol, pH 7.4) with protease and phosphatase cocktails (Sigma-Aldrich). Lysed cells were centrifuged at 12,000 rpm at 4′C for 10 minutes and then the supernatant was collected. Protein concentrations were determined using a BCA protein quantification kit (Thermo Fisher Scientific, #23227). Equal amounts of protein were incubated with 1 μM of biotinylated compound 3 (Bio-compound 3; biotinylated analog of compound 47) at 4′C overnight and then immunoprecipitated with streptavidin-agarose bead. Pull-downed proteins were eluted, loaded to SDS-PAGE, transferred to a PVDF membrane (MilliporeSigma), and then treated with anti-CDK7 antibody. CDK7 protein was detected by HRP-conjugated secondary antibody. The image was obtained by ImageQuant™ LAS4000.

[1] = tested on: phosphorylated form of H2AX (Ser139) in RENCA cells; test: Western blot analysis of phosphorylated H2AX; type: cell-based, mouse; conditions: 48 hours
Protocol: RENCA cells were treated with various concentrations of compound 47 in 5% CO2 at 37′C for 48 hours. Cells were washed with ice-cold PBS twice and lysis buffer was added. Cells were collected and kept on the ice for 30 min. Lysed cells were centrifuged at 12,000 rpm at 4′C for 10 minutes, and then the supernatant was collected. Protein concentrations were quantified using a BCA protein Quantification kit. Equal amounts of protein were fractionated by SDS-PAGE, transferred to a PVDF membrane, and then treated with anti-phospho-H2AX (Ser139) antibody. The phosphorylated form of H2AX protein was detected by HRP-conjugated secondary antibody and the signal was obtained with Super Signal Western blot enhancer. The image was acquired by ImageQuant™ LAS 4000.

RENCA tumor = test: RENCA syngeneic renal tumor mouse model; type: in vivo, BALB/c mice; conditions: compound 47 10 mg/kg i.p. every day; anti-PD-1 antibody 10 mg/kg i.p. twice a week; alone or both
Protocol: RENCA cells (1×10^5) were subcutaneously implanted in the right flank of BALB/c mice. Tumor-bearing mice were randomized and then treated with compound 47 (10 mg/kg, intraperitoneally every day), anti-PD-1 antibody (10 mg/kg, intraperitoneally twice a week, clone: RMP1-14, Bio X Cell), or both compound 47 and anti-PD-1 antibody when the average tumor volume reached 31 mm^3 (N=7 or 8 per group). Control mice were treated with vehicle and rat IgG2a isotype control antibody (clone: 2A3, Bio X Cell). Tumor volume and body weight were measured twice per week.

[2] = tested on: g-H2AX foci in OVCAR3 cells; test: g-H2AX foci imaging in OVCAR3 cells after cisplatin; type: cell-based, human; conditions: 100 nM cisplatin 24 hours, wash, then Compound 47, 24, 48 and 72 hours
Protocol: OVCAR3 cells were treated with DMSO or 100 nM of cisplatin for 24 hours. Cells were then washed with culture media and treated with Compound 47 at various concentrations. Cells were collected 24, 48 and 72 hours after cisplatin wash and then stained with 4′,6-diamidino-2-phenylindole (DAPI) and anti-phospho-histone H2AX ([…]). g-H2AX foci inside the nucleus were identified by Alexa-568 staining. Fluorescence images of g-H2AX foci were captured using a confocal imaging system, CQ1 (×40 objective).

[3] = tested on: g-H2AX or 53BP1 foci in PC3 cells; test: g-H2AX / 53BP1 foci imaging in PC3 cells after X-ray irradiation; type: cell-based, human; conditions: Compound 47 1 hour then X-ray 8, 4 or 2 Gy, 24 hours after irradiation
Protocol: PC3 cells were treated with DMSO or various concentrations of Compound 47 for 1 hour. Cells were then irradiated with X-ray at set of 225 KV, 17.7 mA for 5 min using a Faxitron Specimen Radiography System (8 Gy, 4 Gy and 2 Gy irradiation, FIGS. 7A-7C, and 7D-7F, respectively). Cells were collected at 1-, 4-, 6-, 24- and 48-hour post X-ray irradiation and stained with HOECHST and anti-phospho-histone H2AX ([…]) or 53BP1. g-H2AX or 53BP1 foci inside the nucleus were identified with Alexa Flour488. Fluorescence images of the foci were obtained using Opera Phenix 3 High-content screening system (×40 objective) and the average granule number f SD of g-H2AX (FIG. 7A to 7C) or of 53BP1 (FIG. 7D to 7F) per cell was determined using MetaXpress software.

With `C[C@]12CC[C@@H]3c4ccc(O)cc4C[C@@H](CCCCCCCCC[S+]([O-])CCCC(F)(F)C(F)(F)F)[C@H]3[C@@H]1CC[C@@H]2O` (stereo partly drawn) [fulvestrant, reference compound] the TGI (MCF7 tumor) was 81%.
Work on `O=C(c1cc(Cc2n[nH]c(=O)c3ccccc23)ccc1F)N1CCN(C(=O)C2CC2)CC1` [olaparib, reference compound] yielded a TGI (OVCAR3 tumor) of 38%.
`CC(=O)O[C@@]12CO[C@@H]1C[C@H](O)[C@@]1(C)C(=O)[C@H](O)C3=C(C)[C@@H](OC(=O)[C@H](O)[C@@H](NC(=O)OC(C)(C)C)c4ccccc4)C[C@@](O)([C@@H](OC(=O)c4ccccc4)[C@H]21)C3(C)C` [docetaxel, reference compound] showed a TGI (DU145 tumor) of 25%.
In the case of `C=C(F)C(=O)Nc1ccc2c(-c3ccccc3CNc3nc(NC[C@H]4CCNC[C@@H]4O)nc4c(C(C)C)cnn34)nccc2c1` [Compound 47], the IC50 (RENCA cells) is reported as 0.02 µM, the CDK7 occupancy (CDK7) is reported as “in a dose dependent manner” and the “phosphorylation of H2AX at Serine-139” value [1] is reported as “induced phosphorylation of H2AX at the Serine-139 residue in a dose dependent manner”. For the same compound, the “tumor growth inhibition (TGI)” value (RENCA tumor) was 50.2%, the TGI (OVCAR3 tumor) was 36% and the TGI (DU145 tumor) was 61%. The TGI (MCF7 tumor) was 81%, the “percentage of g-H2AX-positive cells (g-H2AX foci)” value [2] was “increased the percentage of g-H2AX foci in a time- and dose-dependent manner” and the “DNA damage sustaining effect (granule number of g-H2AX or 53BP1 per cell)” value [3] was “significant DNA damage sustaining effects”.
